Experimental data published in ChEMBL document CHEMBL1201862, “PubChem BioAssay data set” (2004).
Where “and” joins values, the source holds several entries; their conditions need not be identical. Equal entries are not always repeated. One block for each compound: values may come before it. Calls of active or inactive are those of the source.

How the values were obtained:
Cytochrome P450 2D6 = Cytochrome P450 2D6 (Homo sapiens, UniProt P10635);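 further: CYP2D6 member of a cytochrome P450 panel assay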
Sequence of Cytochrome P450 2D6 (P10635 whole entry): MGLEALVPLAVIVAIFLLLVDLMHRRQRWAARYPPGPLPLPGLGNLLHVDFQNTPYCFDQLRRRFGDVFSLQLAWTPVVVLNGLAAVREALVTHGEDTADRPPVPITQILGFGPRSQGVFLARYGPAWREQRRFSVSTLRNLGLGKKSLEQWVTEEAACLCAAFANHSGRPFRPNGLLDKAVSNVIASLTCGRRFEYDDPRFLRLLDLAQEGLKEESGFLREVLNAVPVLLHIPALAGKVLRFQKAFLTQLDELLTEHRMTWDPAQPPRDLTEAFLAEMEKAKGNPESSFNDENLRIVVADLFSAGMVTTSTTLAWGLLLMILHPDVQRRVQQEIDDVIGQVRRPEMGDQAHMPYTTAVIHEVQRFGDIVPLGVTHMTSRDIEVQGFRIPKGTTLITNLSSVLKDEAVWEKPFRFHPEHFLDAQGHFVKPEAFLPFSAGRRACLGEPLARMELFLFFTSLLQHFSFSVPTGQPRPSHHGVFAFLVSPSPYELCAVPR

Cytochrome P450 1A2 = biological target: T1, Cytochrome P450 1A2 (Homo sapiens, UniProt P05177);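 further: PubChem cytochrome P450 panel assay, CYP1A2 panel member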
T1 sequence (P05177 whole entry): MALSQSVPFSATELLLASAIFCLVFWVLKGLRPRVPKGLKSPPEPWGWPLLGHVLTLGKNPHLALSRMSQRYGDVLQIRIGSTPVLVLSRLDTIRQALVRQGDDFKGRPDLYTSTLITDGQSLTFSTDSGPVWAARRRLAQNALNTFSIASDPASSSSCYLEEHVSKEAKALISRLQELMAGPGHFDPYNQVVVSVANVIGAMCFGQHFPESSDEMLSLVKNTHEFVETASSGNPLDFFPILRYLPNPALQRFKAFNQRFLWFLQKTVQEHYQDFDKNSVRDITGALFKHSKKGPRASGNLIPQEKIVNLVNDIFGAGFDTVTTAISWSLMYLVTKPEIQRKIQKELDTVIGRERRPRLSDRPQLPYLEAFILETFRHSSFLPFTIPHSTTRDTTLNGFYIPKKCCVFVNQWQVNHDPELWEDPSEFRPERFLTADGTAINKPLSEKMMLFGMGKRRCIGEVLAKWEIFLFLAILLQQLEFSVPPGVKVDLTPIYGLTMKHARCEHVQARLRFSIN

Cytochrome P450 3A4 = Cytochrome P450 3A4 (Homo sapiens, UniProt P08684);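 further: CYP3A4 tested as one member of a cytochrome P450 panel screen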
Sequence of Cytochrome P450 3A4 (P08684 whole entry): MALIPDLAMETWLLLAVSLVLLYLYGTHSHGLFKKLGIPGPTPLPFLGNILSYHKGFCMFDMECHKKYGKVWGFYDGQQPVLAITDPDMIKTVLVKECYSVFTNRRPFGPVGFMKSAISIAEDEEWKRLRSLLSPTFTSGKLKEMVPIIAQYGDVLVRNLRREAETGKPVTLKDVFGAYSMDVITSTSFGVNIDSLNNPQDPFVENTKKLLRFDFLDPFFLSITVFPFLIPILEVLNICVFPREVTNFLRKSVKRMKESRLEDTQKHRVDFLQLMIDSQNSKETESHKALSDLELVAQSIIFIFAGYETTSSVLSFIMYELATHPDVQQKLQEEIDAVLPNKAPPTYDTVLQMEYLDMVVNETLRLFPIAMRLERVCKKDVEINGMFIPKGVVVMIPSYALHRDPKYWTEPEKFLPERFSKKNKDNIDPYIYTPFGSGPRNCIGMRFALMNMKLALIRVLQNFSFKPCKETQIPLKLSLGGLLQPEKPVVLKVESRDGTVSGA

[1] = Trypanosoma cruzi growth suppression in host cells – NIH3T3 host cells, beta-gal luminescence, confirmation (AID 2044); format: functional, cell-based;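 further: intracellular parasites grown in NIH/3T3 mouse fibroblasts as host cells; luminescent beta-galactosidase reporter signal from transgenic T. cruzi replicating inside host cells; inhibitors lower the luminescence signal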
[2] = NIH3T3 cell viability loss – ATP luminescence, mouse fibroblasts, counter-screen, dose response (AID 2010); format: functional, cell-based;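 further: cells exposed to compound for about 90 hours before reading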
Cytochrome P450 2C9 = Cytochrome P450 2C9 (Homo sapiens, UniProt P11712)
Sequence of Cytochrome P450 2C9 (P11712 whole entry): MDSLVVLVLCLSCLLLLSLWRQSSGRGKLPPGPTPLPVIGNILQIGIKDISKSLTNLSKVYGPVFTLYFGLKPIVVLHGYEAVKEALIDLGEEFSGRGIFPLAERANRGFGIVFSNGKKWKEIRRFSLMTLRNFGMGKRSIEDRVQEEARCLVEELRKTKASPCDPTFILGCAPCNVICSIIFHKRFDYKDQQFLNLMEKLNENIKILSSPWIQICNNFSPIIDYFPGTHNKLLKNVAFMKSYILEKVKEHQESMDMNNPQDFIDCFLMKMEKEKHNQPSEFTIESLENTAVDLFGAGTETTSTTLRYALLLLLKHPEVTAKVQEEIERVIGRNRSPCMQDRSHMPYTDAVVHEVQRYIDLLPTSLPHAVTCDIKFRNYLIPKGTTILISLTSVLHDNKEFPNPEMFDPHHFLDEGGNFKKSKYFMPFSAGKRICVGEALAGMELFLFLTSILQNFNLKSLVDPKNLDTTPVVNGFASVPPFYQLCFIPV

[3] = biological target: T2, Corticotropin-releasing factor receptor 2/Corticotropin-releasing factor-binding protein (Homo sapiens, UniProt P24387+Q13324); assay: activators of CRF receptor 2 with binding protein – uHTS hits, confirmation (AID 602473); format: functional; conditions: read-out: EC50_Mean
T2 sequence (Q13324 whole entry): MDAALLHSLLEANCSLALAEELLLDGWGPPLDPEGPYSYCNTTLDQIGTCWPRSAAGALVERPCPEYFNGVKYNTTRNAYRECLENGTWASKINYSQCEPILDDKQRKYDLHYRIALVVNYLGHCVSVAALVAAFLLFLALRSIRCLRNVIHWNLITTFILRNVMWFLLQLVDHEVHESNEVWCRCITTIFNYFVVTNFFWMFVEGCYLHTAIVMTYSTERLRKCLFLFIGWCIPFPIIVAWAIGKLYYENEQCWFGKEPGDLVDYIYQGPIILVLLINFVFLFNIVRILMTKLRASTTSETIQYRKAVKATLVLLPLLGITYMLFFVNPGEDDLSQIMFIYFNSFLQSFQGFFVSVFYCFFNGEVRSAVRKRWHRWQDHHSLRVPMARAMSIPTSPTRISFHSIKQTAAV
T2 sequence (P24387 whole entry): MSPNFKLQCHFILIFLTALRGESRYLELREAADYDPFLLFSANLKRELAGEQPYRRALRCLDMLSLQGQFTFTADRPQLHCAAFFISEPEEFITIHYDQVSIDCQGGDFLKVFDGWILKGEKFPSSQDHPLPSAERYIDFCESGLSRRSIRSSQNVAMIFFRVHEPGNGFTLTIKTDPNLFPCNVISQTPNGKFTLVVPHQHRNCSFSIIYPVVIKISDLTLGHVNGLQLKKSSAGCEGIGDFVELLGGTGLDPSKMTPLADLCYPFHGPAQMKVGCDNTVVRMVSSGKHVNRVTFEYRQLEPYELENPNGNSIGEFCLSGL

Structure (SMILES): CCOC(=O)c1cc2c(=O)n3ccccc3nc2n(C(C)C)/c1=N/C(=O)c1c(-c2c(F)cccc2Cl)noc1C
- EC50 [1]: 2.18 µM (active)
- EC50 [2]: > 60 µM (inconclusive)

Structure (SMILES): CCO[C@@H]1OC(C(=O)N2CCN(Cc3ccc4c(c3)OCO4)CC2)=C[C@H](C2CCCCC2)[C@H]1CCCO
- EC50 [1]: 1.01 µM (active)
- EC50 [2]: > 60 µM (not active)

Structure (SMILES): CN(C)c1nc2c(c(=O)[nH]c(=O)n2C)n1Cc1ccccc1Br
- AC50 (Cytochrome P450 2D6): 25.1 µM (inconclusive)
- AC50 (Cytochrome P450 1A2): 28.2 µM (inconclusive)
- AC50 (Cytochrome P450 2C9): 0.0708 µM (inconclusive)

Structure (SMILES): O=[N+]([O-])c1cc(Cc2cc([N+](=O)[O-])c3cccnc3c2O)c(O)c2ncccc12
- AC50 (Cytochrome P450 2D6): 3.98 µM (inconclusive)
- AC50 (Cytochrome P450 2C9): 5.01 µM (inconclusive)

Structure (SMILES): Cc1ccc(NC(=O)C2CCN(c3cnccn3)CC2)cc1C
- EC50 [1]: 1.55 µM (active)
- EC50 [2]: > 60 µM (not active)

Structure (SMILES): Clc1ccc(-c2noc(CN3CCCCC3)n2)cc1
- AC50 (Cytochrome P450 2D6): 3.16 µM (inconclusive)

Structure (SMILES): NCCNS(=O)(=O)c1cccc2cnccc12
- AC50 (Cytochrome P450 2D6): 7.94 µM (inconclusive) and 25.1 µM (inconclusive)
- AC50 (Cytochrome P450 3A4): 20 µM (inconclusive) and 39.8 µM (inconclusive)

Structure (SMILES): O=C(OC(c1ccccc1)c1nccc2ccccc12)c1cc([N+](=O)[O-])cc([N+](=O)[O-])c1 (stereo not drawn)
- EC50 [1]: 1.01 µM (active)
- EC50 [2]: > 60 µM (not active)

Structure (SMILES): Cc1nn(-c2ccccc2)c(N2CCCC2)c1/C=N/NC(=O)c1cc(-c2ccccc2)nc2ccccc12
- EC50 [1]: 1.96 µM (active)
- EC50 [2]: > 60 µM (not active)

Structure (SMILES): CC(C)CCc1noc(CN(C)CC2CCN(Cc3ccccc3)CC2)n1
- EC50 [1]: 1.47 µM (active)
- EC50 [2]: > 60 µM (not active)

Structure (SMILES): COc1ccc2[nH]c(C)c(CCN(Cc3cccs3)C(S)=Nc3ccccc3OC)c2c1
- EC50 [1]: 2.08 µM (active)
- EC50 [2]: > 60 µM (not active)

Structure (SMILES): CCN1CCN(c2cc(C)c3cc(NC(=O)Cc4ccccc4OC)ccc3n2)CC1
- EC50 [1]: 1.14 µM (active)
- EC50 [2]: > 60 µM (not active)

Other lines, results leading:

- AC50 (Cytochrome P450 2D6): 20 µM (inconclusive)
- AC50 (Cytochrome P450 1A2): 15.8 µM (inconclusive)
Structure (SMILES): Clc1ccccc1-c1ccc2ncnc(NC3CCNCC3)c2c1

- AC50 (Cytochrome P450 2D6): 39.8 µM (inconclusive)
Structure (SMILES): CCCC(=O)Nc1ccc(C(=O)NNC(=S)NC(=O)c2cccs2)cc1

- AC50 (Cytochrome P450 3A4): 15.8 µM (inconclusive)
Structure (SMILES): O=C(CSc1nnc(Cc2cc(O)nc(O)n2)n1-c1ccccc1)N1CCCc2ccccc21

- AC50 (Cytochrome P450 2C9): 12.6 µM (inconclusive)
Structure (SMILES): COC(=O)c1cc(NC(=O)CC2NC3CCCCC3NC2=O)cc(C(=O)OC)c1 (stereo not drawn)

- AC50 (Cytochrome P450 1A2): 15.8 µM (inconclusive)
Structure (SMILES): Cc1cccc(C(CC(=O)N2CCCC2)c2ccccc2)c1O (stereo not drawn)

- AC50 (Cytochrome P450 2C9): 31.6 µM (inconclusive)
Structure (SMILES): O=c1onc(-c2cccs2)n1Cc1ccccc1

- EC50 [3]: > 53 µM (inactive)
Structure (SMILES): CCCCCn1/c(=N/C(=O)c2cccnc2)c(C#N)cc2c(=O)n3cccc(C)c3nc21

- AC50 (Cytochrome P450 1A2): 6.31 µM (inconclusive)
Structure (SMILES): CCCCn1c(SCc2c(C)noc2C)nc2cc(S(N)(=O)=O)ccc21

- AC50 (Cytochrome P450 3A4): 1.12 µM (inconclusive)
Structure (SMILES): Cc1nn(Cc2ccc(Cl)cc2)c(C)c1NC(=O)Cn1nc([N+](=O)[O-])c(Cl)c1C

- AC50 (Cytochrome P450 1A2): 10 µM (inconclusive)
Structure (SMILES): Cn1c(C(=O)O)c(CC(=O)NCc2cccnc2)c2ccccc21

- AC50 (Cytochrome P450 2C9): 1.26 µM (inconclusive)
Structure (SMILES): COc1ccc2[nH]cc(CCNc3ccnc(-c4ccccc4C)n3)c2c1

- AC50 (Cytochrome P450 1A2): 20 µM (inconclusive)
- AC50 (Cytochrome P450 3A4): 25.1 µM (inconclusive)
Structure (SMILES): C#CCCCC(=O)Nc1ccccc1

- AC50 (Cytochrome P450 1A2): 31.6 µM (inconclusive)
- AC50 (Cytochrome P450 3A4): 20 µM (inconclusive)
Structure (SMILES): CC(=O)OCCNC(=O)c1cccnc1

- AC50 (Cytochrome P450 2C9): 6.31 µM (inconclusive)
Structure (SMILES): C[C@@H]1C[C@H](C)CN(S(=O)(=O)c2cc(Cl)c(Oc3ccc([N+](=O)[O-])cc3Cl)c(Cl)c2)C1

- AC50 (Cytochrome P450 1A2): 0.794 µM (inconclusive)
Structure (SMILES): CCNc1ncc2nc(-c3cc(F)cc(F)c3)c(=O)n(CCC#N)c2n1

- AC50 (Cytochrome P450 2C9): 1.58 µM (inconclusive)
Structure (SMILES): CN(Cc1ccco1)c1ncnc2ccc(-c3ccccc3Cl)cc12
